The values below come from US7399639B2, “Sensors, and methods of making and using the same” (Massachusetts Institute of Technology, priority 2003, dated 2008).

Structures are written as SMILES.

One data set deals with HeLa cells. As to the kind of experiment: Cell permeability studies using Zn-pyrithione, fluorescence microscopy. The class given is cell-based. As to conditions: 5 μM ligand 30 min RT, 10 μM Zn^2+-pyrithione. The procedure: FIG. 10 depicts phase contrast (A) and fluorescence microscopy (B) visualization of HeLa cells treated with the ligands of Formula 101, 103, and 31 in the absence of zinc. Cells were bathed in 5 μM ligand for 30 min at RT, followed by untreated PBS for 10 min.
FIG. 11 depicts phase contrast (A) and fluorescence microscopy (B) visualization of HeLa cells treated with the ligands of Formula 101, 103, and 31 in the presence of zinc. Cells were bathed in 5 μM ligand for 30 min at RT, followed by 10 μM Zn^2+-pyrithione.
FIG. 12 depicts phase contrast (A) and fluorescence microscopy (B) visualization of HeLa cells treated with the ligands of Formula 100, 102, and 31 in the absence of zinc. Cells were bathed in 5 μM ligand for 30 min at RT, followed by untreated PBS for 10 min.
FIG. 13 depicts phase contrast (A) and fluorescence microscopy (B) visualization of HeLa cells treated with the ligands of Formula 100, 102, and 31 in the presence of zinc. Cells were bathed in 5 μM sensor for 30 min at RT, followed by 10 μM Zn^2+-pyrithione.

Data set [1] is described as follows: Quantum yields / fluorescence emission against fluorescein standard. The class given is physicochemical. The conditions noted are these: for λmax (Em, nm): HEPES 50 mM, pH 7.5, KCl 100 mM; for Φ: fluorescein standard. The method, then: (§1) The above results were obtained using the following experimental methods. For all fluorescence experiments, the glassware was washed sequentially with 20% HNO3, deionized water, and ethanol before use. Purified water (resistivity […]) was obtained from a Millipore Milli-Q water purification system. Fluorophore stock solutions in DMSO were made up to concentrations of 1 mM and kept at 4° C. in 100-500 μL aliquots. Portions were thawed and diluted to the required concentrations immediately prior to each experiment. Fluorescence and absorption data were acquired in HEPES buffer (50 mM, pH 7.5, KCl 100 mM) except where otherwise noted. Solutions were transferred to clean, dry propylene containers for storage, and filtered through 0.25 μm syringe filters before data acquisition. Fluorescence spectra were measured from 475 nm to 650 nm. All measurements were performed in triplicate.
Quantum Yields. Quantum yields were calculated by recording UV-vis spectra of the fluorophore under study and a 1 μM fluorescein standard in 0.1 N NaOH to determine the wavelength where sample and fluorescein absorption were equal. The fluorescence spectrum of each was then recorded, exciting at the wavelength determined by uv-vis spectra comparison. The integrated emission of the sample was normalized to the fluorescein standard and multiplied by the standard quantum yield of 0.95. Brannon, J. H.; Magde, D. J. Phys. Chem. 1978, 82, 705-709.

A short description of data set [2]: Extinction coefficients / absorption spectra in HEPES buffer. The class given is physicochemical. The conditions noted are these: for λmax (Abs, nm): HEPES 50 mM, pH 7.5, KCl 100 mM. The procedure:
as §1
Extinction Coefficients. A 2 mL portion of HEPES buffer was titrated with 2 μL aliquots of 1 mM fluorophore stock solution and the absorption measured at each concentration. The absorbance at the maximum was plotted as a function of concentration, and the slope was taken as the extinction coefficient. The procedure was repeated using 1.9 mL portions of HEPES buffer containing 100 μL aliquots of 10 mM ZnCl2 solution.

The conditions of data set [3]: reported elsewhere; cited from earlier work.
The conditions of data set [4]: metal-free; reported elsewhere; cited from earlier work.
The nature of data set [5]: Affinity of compound 30 for Zn2+. The class given is binding.

For `O=C(O)c1ccc2c(c1)C(=O)OC21c2cc(Cl)c(O)c(CN(Cc3ccccn3)Cc3ccccn3)c2Oc2c1cc(Cl)c(O)c2CN(Cc1ccccn1)Cc1ccccn1` [Formula 101], the uptake into cells entry in the data set on HeLa cells is on record as “not taken up by the cell”. For the same compound, in data set [1] (+Zn^2+ complex), the Brightness was 5.5 × 10^4; the “λmax (Em, nm)” value was 532 nm; the Φ was determined as 0.62. In data set [1] (free ligand), the Brightness is on record as 1.4 × 10^4; the “λmax (Em, nm)” value was found to be 536 nm; the Φ was 0.17. Moreover, in data set [2] (+Zn^2+ complex), the εmax is 88000 M⁻¹ cm⁻¹ and the “λmax (Abs, nm)” value is listed as 509 nm. For the same compound, in data set [2] (free ligand), the εmax was 81000 M⁻¹ cm⁻¹ and the “λmax (Abs, nm)” value amounted to 520 nm.
Regarding `COc1ccc(NCc2c(O)ccc3c(-c4ccccc4C(=O)O)c4cc(Cl)c(=O)cc-4oc23)c(CN(Cc2ccccn2)Cc2ccccn2)c1` [Zinpyr-3], the “fluorescence change upon addition of Zn(II)” value in data set [3] is on record as “negligible”. Further, the quantum efficiency in data set [4] is reported as 0.04.
With `O=C(O)c1ccccc1-c1c2cc(Cl)c(=O)cc-2oc2cc(N(Cc3ccccn3)Cc3ccccn3)ccc12` [compound 30, 9-(o-Carboxyphenyl)-2-chloro-6-[bis(2-pyridylmethyl)amino]-3-xanthanone], in data set [5], the “affinity for Zn^2+” value was “weak”.
